Assay results published in patent US10682340B2, “Depot formulations” (DURECT CORPORATION, priority 2016, dated 2020).
Converted amounts (≈) assume the structure as drawn. Where two headings read alike, the source gives them in different places.

Assay: Solubility of sirolimus in aqueous media, solvents and benzyl benzoate/ethanol mixtures
Format: physicochemical

solubility (PBS with 0.1% SDS, aqueous with cosolvent or surfactant or cyclodextrin, PBS, 0.1% SDS, pH 7.4, ambient temperature, read-out: Solubility): 0.23 mg/mL (≈ 0.252 mM)
solubility (PBS, pH 7.4, ambient temperature): Not detected
solubility (benzyl benzoate/ethanol mixture, organic solvent or mixture, BB/EtOH Ratio 7, room temperature, read-out: Solubility in Benzyl Benzoate/Ethanol): 163 mg/mL
solubility (benzyl benzoate/ethanol mixture, organic solvent or mixture, BB/EtOH Ratio 9, room temperature, read-out: Solubility in Benzyl Benzoate/Ethanol): 125 mg/mL
solubility (benzyl benzoate/ethanol mixture, organic solvent or mixture, BB/EtOH Ratio 16, room temperature, read-out: Solubility in Benzyl Benzoate/Ethanol): 90.1 mg/mL
solubility (benzyl benzoate/ethanol mixture, organic solvent or mixture, BB/EtOH Ratio 18, room temperature, read-out: Solubility in Benzyl Benzoate/Ethanol): 85.6 mg/mL
solubility (oil or lipid, Castor oil, ambient temperature, read-out: Solubility): 3 mg/mL (≈ 3.28 mM)
solubility (organic solvent or mixture, Benzyl alcohol (BA), ambient temperature, read-out: Solubility): ≥ 387 mg/mL
solubility (organic solvent or mixture, Benzyl benzoate (BB), ambient temperature, read-out: Solubility): 37 mg/mL (≈ 40.5 mM)
solubility (organic solvent or mixture, Dimethyl sulfoxide (DMSO), ambient temperature, read-out: Solubility): ≥ 243 mg/mL
solubility (organic solvent or mixture, Ethanol (EtOH), ambient temperature, read-out: Solubility): 48.5 mg/mL (≈ 53.1 mM)
solubility (organic solvent or mixture, N methyl-2 Pyrrolidone (NMP), ambient temperature, read-out: Solubility): ≥ 284 mg/mL
solubility (organic solvent or mixture, PEG 400, ambient temperature, read-out: Solubility): 10.7 mg/mL (≈ 11.7 mM)
solubility (organic solvent or mixture, Propylene glycol, ambient temperature, read-out: Solubility): 11.8 mg/mL (≈ 12.9 mM)
Structure (SMILES): CO[C@H]1C[C@@H]2CC[C@@H](C)[C@@](O)(O2)C(=O)C(=O)N2CCCC[C@H]2C(=O)O[C@H]([C@H](C)C[C@@H]2CC[C@@H](O)[C@H](OC)C2)CC(=O)[C@H](C)/C=C(\C)[C@@H](O)[C@@H](OC)C(=O)[C@H](C)C[C@H](C)/C=C/C=C/C=C/1C [Sirolimus, sirolimus]
